Measured values taken from patent publication US8168651B2, “Protein kinase modulators” (Cylene Pharmaceuticals, Inc., priority 2008, dated 2012).

How the values were obtained:
Test in all cases: Standardized radiometric kinase assays, percentage of activity at 0.5 μM;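 note: Read-out is ³³P-labelled substrate protein phosphorylated by each kinase, captured on filters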
[1] = target: each individual kinase of the panel (Homo sapiens, UniProt Q96RG2)
[2] = target: each individual kinase of the panel (Homo sapiens, UniProt Q9Y3S1)
[3] = target: each individual kinase of the panel (Homo sapiens, UniProt Q04759)
[4] = target: each individual kinase of the panel (Homo sapiens, UniProt P05129)
[5] = target: each individual kinase of the panel (Mus musculus, UniProt P16277)
each individual kinase of the panel (Mus musculus, UniProt P16277), sequence (P16277 2-499 limits assumed): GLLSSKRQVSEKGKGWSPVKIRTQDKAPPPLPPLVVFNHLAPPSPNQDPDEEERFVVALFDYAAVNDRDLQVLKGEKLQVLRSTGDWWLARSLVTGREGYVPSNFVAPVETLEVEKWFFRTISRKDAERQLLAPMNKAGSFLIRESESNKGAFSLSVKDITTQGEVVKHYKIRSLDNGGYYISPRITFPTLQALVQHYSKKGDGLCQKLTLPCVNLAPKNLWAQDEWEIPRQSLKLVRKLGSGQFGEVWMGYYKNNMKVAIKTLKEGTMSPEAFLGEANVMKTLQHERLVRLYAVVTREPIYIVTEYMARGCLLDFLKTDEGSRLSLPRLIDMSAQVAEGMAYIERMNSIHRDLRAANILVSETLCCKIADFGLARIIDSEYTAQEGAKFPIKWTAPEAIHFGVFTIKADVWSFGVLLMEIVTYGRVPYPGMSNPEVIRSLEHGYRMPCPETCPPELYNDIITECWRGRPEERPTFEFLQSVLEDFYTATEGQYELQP

[6] = target: each individual kinase of the panel (Homo sapiens, UniProt Q9BXA7)
[7] = target: each individual kinase of the panel (Homo sapiens, UniProt O96017, I157T)
[8] = target: each individual kinase of the panel (Homo sapiens, UniProt P29322)
each individual kinase of the panel (Homo sapiens, UniProt P29322), sequence (P29322 28-1005 limits assumed): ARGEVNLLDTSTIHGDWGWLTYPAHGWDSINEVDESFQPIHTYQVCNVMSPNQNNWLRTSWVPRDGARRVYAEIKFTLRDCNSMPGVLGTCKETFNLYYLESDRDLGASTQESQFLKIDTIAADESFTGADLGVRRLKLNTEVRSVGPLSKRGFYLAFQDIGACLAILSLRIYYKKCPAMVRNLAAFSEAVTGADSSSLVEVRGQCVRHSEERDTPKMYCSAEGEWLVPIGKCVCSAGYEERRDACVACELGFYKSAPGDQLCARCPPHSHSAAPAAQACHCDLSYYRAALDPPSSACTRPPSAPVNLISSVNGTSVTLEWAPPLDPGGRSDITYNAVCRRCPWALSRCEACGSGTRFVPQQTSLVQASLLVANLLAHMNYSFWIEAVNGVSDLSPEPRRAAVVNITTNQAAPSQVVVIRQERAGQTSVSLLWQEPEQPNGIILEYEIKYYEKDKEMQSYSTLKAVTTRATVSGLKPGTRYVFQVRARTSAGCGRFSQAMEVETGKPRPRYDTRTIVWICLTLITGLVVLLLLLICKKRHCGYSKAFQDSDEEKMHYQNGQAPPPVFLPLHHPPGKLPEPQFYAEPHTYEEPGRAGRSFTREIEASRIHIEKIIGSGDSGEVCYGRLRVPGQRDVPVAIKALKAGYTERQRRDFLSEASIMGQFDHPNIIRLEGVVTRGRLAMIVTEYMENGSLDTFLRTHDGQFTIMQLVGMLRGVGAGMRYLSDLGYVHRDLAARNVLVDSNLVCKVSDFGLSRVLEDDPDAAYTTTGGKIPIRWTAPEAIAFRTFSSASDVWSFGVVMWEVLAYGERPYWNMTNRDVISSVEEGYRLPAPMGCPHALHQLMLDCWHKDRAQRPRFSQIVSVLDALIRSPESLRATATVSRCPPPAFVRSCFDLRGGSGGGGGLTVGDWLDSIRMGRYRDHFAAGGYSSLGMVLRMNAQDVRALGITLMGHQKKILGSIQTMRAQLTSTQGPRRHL

[9] = target: each individual kinase of the panel (Homo sapiens, UniProt P19784)
[10] = target: each individual kinase of the panel (Homo sapiens, UniProt P07948)
[11] = target: each individual kinase of the panel (Homo sapiens, UniProt Q12866)
each individual kinase of the panel (Homo sapiens, UniProt Q12866), sequence (Q12866 21-999 limits assumed): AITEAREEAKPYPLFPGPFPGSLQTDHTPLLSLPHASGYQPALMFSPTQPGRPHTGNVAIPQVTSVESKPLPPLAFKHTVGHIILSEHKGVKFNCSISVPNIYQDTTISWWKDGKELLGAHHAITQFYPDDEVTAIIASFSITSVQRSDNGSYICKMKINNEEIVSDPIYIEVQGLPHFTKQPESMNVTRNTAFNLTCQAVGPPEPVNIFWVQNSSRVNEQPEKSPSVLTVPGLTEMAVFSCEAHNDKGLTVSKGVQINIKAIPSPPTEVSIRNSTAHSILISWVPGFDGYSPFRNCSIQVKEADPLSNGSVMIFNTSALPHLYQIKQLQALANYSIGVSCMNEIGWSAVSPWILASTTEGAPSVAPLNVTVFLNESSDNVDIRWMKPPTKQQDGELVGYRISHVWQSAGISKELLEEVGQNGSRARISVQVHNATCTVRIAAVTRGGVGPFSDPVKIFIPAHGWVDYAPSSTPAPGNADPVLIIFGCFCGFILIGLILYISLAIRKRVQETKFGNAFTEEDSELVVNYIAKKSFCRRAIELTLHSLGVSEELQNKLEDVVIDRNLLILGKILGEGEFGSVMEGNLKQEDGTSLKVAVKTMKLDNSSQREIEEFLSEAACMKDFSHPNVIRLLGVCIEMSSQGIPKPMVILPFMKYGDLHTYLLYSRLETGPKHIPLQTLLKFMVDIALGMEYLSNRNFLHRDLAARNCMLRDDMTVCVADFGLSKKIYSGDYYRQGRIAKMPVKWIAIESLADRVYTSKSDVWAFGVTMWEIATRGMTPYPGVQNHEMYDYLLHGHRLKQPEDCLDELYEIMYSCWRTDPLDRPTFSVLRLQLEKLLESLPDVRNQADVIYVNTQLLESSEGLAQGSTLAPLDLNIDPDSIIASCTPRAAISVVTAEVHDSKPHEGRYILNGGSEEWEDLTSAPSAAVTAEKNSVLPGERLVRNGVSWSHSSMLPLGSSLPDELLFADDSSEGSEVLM

[12] = target: each individual kinase of the panel (Homo sapiens, UniProt Q86Y07)
[13] = target: each individual kinase of the panel (Homo sapiens, UniProt O96017, R145W)
[14] = target: each individual kinase of the panel (Homo sapiens, UniProt P34947)
[15] = target: each individual kinase of the panel (Homo sapiens, UniProt Q9HBH9)
[16] = target: each individual kinase of the panel (Homo sapiens, UniProt Q96PF2)
[17] = target: each individual kinase of the panel (Homo sapiens, UniProt O43318)
[18] = target: each individual kinase of the panel (Homo sapiens, UniProt O00418)
each individual kinase of the panel (Homo sapiens, UniProt O00418), sequence (O00418 2-725 limits assumed): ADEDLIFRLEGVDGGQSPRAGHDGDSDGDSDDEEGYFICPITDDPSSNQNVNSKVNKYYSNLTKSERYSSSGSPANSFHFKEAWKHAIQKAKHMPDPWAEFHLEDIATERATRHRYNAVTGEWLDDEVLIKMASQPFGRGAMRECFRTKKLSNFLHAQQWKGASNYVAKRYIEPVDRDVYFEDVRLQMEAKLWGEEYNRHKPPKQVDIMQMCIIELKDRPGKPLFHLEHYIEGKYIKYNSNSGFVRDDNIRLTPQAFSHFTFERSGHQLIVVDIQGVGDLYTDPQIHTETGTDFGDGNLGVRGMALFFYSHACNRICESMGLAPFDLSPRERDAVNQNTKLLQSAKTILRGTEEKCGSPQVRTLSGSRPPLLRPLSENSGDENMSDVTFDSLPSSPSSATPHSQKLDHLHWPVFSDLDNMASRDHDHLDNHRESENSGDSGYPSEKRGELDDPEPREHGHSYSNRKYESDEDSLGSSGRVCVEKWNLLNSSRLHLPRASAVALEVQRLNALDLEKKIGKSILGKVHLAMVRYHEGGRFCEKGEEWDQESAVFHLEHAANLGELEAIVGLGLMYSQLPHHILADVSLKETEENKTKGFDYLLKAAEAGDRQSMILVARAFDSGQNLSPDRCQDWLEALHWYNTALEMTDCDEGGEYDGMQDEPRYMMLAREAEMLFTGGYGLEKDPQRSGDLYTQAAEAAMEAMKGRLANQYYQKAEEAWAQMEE

[19] = target: each individual kinase of the panel (Homo sapiens, UniProt Q16620)
each individual kinase of the panel (Homo sapiens, UniProt Q16620), sequence (Q16620 32-822 limits assumed): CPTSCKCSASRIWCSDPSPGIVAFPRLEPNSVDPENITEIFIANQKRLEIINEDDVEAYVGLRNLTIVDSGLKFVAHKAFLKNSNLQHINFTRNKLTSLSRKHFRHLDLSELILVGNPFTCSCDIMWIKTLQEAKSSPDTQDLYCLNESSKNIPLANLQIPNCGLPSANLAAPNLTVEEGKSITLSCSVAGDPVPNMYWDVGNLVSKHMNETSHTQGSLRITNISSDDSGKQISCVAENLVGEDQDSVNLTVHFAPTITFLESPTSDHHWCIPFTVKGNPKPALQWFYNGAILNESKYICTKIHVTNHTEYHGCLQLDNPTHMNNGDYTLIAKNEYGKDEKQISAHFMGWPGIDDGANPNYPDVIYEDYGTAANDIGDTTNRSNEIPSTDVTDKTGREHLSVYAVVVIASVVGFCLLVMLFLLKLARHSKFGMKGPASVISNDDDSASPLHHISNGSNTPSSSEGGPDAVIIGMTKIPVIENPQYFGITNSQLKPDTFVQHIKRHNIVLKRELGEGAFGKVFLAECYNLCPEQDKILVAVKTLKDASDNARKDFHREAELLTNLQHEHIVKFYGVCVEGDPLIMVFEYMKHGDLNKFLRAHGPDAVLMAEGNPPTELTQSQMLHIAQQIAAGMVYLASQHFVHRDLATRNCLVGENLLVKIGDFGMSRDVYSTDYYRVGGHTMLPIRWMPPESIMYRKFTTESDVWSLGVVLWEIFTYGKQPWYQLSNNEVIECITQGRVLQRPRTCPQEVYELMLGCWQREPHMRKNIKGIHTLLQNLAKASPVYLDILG

[20] = target: each individual kinase of the panel (Homo sapiens, UniProt P43250)
[21] = target: each individual kinase of the panel (Homo sapiens, UniProt Q9HBY8)
[22] = target: each individual kinase of the panel (Homo sapiens, UniProt P52333)
[23] = target: each individual kinase of the panel (Homo sapiens, UniProt O96017)
[24] = target: each individual kinase of the panel (Homo sapiens, UniProt P80192)
[25] = target: each individual kinase of the panel (Homo sapiens, UniProt P53778)
[26] = target: each individual kinase of the panel (Homo sapiens, UniProt Q13237)
each individual kinase of the panel (Homo sapiens, UniProt Q13237), sequence (Q13237 2-762 limits assumed): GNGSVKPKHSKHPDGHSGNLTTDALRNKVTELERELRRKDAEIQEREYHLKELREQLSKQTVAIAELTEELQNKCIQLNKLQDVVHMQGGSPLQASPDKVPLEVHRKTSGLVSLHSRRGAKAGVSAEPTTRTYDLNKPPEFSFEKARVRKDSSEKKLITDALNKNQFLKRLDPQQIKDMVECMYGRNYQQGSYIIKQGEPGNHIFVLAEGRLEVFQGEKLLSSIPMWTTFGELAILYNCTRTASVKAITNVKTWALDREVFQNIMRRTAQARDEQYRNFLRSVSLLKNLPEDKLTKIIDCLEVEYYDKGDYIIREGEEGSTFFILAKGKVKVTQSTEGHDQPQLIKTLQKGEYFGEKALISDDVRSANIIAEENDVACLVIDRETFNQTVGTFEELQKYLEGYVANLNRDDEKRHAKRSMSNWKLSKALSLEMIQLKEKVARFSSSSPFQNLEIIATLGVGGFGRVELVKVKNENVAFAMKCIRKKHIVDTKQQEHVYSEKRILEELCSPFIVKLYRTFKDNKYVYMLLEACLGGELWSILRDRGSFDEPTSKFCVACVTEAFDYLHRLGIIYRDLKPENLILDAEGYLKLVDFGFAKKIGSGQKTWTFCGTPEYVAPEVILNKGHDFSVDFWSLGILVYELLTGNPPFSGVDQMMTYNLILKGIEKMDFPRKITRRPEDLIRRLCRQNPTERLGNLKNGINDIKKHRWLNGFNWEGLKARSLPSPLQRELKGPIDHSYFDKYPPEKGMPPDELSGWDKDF

O=C(O)c1ccc2c(c1)nc(Nc1cccc(Cl)c1)c1ccncc12 [drawing 1136]
PASK percentage of activity [1]: 85% | WNK2 percentage of activity [2]: 4% | PRKCT percentage of activity [3]: −3% | PRKCG percentage of activity [4]: 6% | Blk(m) percentage of activity [5]: 14% | TSSK1 percentage of activity [6]: −12% | CHK2(1157T) (h) percentage of activity [7]: 15% | EPHA8 percentage of activity [8]: −10% | CK2 alpha 2 percentage of activity [9]: 103% | LYN percentage of activity [10]: 13% | MER percentage of activity [11]: 82% | VRK2 percentage of activity [12]: −3% | CHK2(R145W) (h) percentage of activity [13]: 6% | GRK5 percentage of activity [14]: 74% | Mnk2 percentage of activity [15]: 79% | TSSK2 percentage of activity [16]: −11% | TAK1 percentage of activity [17]: 4% | eEF−2K(h) percentage of activity [18]: 3% | TRKB percentage of activity [19]: 24% | GRK6 percentage of activity [20]: 44% | SGK2 percentage of activity [21]: 4% | JAK3 percentage of activity [22]: 37% | CHK2 percentage of activity [23]: 20% | MLK1 percentage of activity [24]: 43% | p38-gamma percentage of activity [25]: 21% | PRKG2 percentage of activity [26]: −10%
